Earlier results as cited in patent US6964953B2, “Methods for treating stress disorders using glucocorticoid receptor-specific antagonists” (Corcept Therapeutics, Inc., priority 2001, dated 2005).

What was measured:
progesterone receptor = molecular target: T1, progesterone receptor (Homo sapiens, UniProt P06401); conditions: result in words
T1 sequence (P06401 1-933): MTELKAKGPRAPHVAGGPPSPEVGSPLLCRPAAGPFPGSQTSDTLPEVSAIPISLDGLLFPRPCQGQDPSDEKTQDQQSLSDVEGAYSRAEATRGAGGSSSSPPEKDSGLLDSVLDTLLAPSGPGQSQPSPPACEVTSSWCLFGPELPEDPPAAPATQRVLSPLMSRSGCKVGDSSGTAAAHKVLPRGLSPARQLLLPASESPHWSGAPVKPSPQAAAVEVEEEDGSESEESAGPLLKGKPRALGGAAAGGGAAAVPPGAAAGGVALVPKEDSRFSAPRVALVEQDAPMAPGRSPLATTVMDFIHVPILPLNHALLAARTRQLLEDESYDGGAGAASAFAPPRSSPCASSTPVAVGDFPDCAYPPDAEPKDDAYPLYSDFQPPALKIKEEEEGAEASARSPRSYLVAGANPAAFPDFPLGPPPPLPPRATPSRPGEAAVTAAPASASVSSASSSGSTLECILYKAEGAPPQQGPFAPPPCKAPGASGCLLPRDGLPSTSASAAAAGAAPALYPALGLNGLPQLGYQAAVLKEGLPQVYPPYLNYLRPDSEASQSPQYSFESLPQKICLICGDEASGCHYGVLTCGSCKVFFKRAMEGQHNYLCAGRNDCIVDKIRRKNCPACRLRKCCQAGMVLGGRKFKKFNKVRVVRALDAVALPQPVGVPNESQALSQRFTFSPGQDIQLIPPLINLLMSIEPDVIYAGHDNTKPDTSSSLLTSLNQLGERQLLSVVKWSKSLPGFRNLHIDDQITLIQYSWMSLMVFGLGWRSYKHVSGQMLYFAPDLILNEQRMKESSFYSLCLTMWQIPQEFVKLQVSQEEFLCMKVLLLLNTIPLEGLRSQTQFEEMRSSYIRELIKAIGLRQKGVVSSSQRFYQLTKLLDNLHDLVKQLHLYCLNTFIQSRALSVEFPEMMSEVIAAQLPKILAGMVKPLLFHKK

rat hippocampus = conditions: Talmi et al. 1996
[1] = system: mouse hippocampus neuronal cells; conditions: Behl et al. 1997
[2] = in one study; Kawai (1989)
[3] = molecular target: T2, glucocorticoid (GR) receptor (Homo sapiens, UniProt P04150); conditions: result in words
T2 sequence (P04150 1-777): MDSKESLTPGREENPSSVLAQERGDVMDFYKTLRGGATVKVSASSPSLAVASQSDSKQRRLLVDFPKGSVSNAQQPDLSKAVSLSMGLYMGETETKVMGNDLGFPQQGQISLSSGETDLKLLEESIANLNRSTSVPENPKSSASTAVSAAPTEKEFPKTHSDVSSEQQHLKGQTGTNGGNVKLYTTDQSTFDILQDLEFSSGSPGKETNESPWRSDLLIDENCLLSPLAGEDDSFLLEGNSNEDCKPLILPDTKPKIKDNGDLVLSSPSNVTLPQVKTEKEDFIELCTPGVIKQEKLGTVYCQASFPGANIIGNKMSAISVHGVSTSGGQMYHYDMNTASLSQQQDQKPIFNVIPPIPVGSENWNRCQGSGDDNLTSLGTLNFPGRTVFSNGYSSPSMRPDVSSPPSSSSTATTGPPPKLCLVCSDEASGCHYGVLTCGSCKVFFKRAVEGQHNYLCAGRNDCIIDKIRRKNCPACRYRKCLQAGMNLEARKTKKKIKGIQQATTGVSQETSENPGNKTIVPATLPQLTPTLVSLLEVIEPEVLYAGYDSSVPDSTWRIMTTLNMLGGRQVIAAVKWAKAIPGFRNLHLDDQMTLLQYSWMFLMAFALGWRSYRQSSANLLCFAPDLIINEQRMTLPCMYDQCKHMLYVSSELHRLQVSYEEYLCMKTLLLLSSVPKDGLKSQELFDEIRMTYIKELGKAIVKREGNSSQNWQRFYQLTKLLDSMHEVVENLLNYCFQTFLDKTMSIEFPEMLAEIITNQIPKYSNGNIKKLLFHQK

Structure (SMILES)	progesterone receptor antagonist activity (progesterone receptor)	abrogation of age-associated electrophysiological changes (rat hippocampus)	protection against oxidative stress-induced neuronal cell death [1]	daily dose excreted in the urine [2]	GR antagonist activity [3]
CC#C[C@]1(O)CC[C@H]2[C@@H]3CCC4=CC(=O)CCC4=C3[C@@H](c3ccc(N(C)C)cc3)C[C@@]21C [Mifepristone, 17-beta-hydroxy-11-beta-(4-dimethyl-aminophenyl)-17-alpha-(1-propynyl)-estra-4,9-dien-3-one]	powerful antagonist	effective at abrogating some of the age-associated electrophysiological changes	providing protection against oxidative stress-induced neuronal cell death	less than 0.5%	powerful antagonist
CC#C[C@]1(O)CC[C@H]2[C@@H]3CCC4=CC(=O)CCC4=C3[C@@H](c3ccc(OCCN(C)C)cc3)C[C@@]21C [RU009, 11-beta-(4-dimethyl-aminoethoxyphenyl)-17-alpha-(propynyl-17 beta-hydroxy-4,9-estradien-3-one)]					shown to have GR antagonist effects
